Literature values as cited in patent US20250313903A1, “NEOANTIGEN IMMUNOTHERAPY” (Gradalis, Inc., priority 2023, published 2025).
Like-named read-outs stand apart in the source and are kept apart here.

Key:
[1] = system: advanced renal cell carcinoma; details: Avelumab + Axitinib vs. sunitinib
[2] = system: chemo-refractory, metastatic Merkel cell carcinoma
[3] = system: advanced urothelial carcinoma, 2nd line setting; details: in vivo
[4] = system: stage III-IV ovarian cancer
[5] = in vivo
[6] = system: ovarian cancer
[7] = system: primary advanced or recurrent dMMR or MSI-H endometrial cancer; details: dostarlimab-gxly vs. placebo + carboplatin-paclitaxel
[8] = system: recurrent or metastatic cervical cancer after platinum-based chemotherapy; details: vs. investigator-choice chemotherapy
[9] = system: locally advanced, metastatic squamous cell carcinoma
[10] = system: advanced renal cell cancer; details: in vivo
[11] = system: Stage IIIb/IV newly diagnosed ovarian cancer; details: follow up at 74 months
[12] = system: advanced/metastatic urothelial carcinoma, platinum-refractory
[13] = system: newly diagnosed advanced high-grade ovarian cancer
[14] = system: advanced non-colorectal dMMR tumors; details: in vivo
[15] = system: recurrent or metastatic head and neck squamous cell cancer; details: first-line; monotherapy for CPS ≥1% or with chemotherapy
[16] = system: persistent/recurrent or metastatic cervical cancer with PD-L1 CPS ≥1; details: pembrolizumab vs. placebo + paclitaxel/platinum +/- bevacizumab
[17] = system: MSI-H, dMMR or TMB-H solid tumors
[18] = system: unresectable/metastatic urothelial cancer, cisplatin-ineligible; details: 1st line, CPS ≥10
[19] = system: previously treated, PD-L1 positive, advanced NSCLC; details: in vivo
[20] = system: refractory classical Hodgkin's lymphoma; details: in vivo
[21] = system: NSCLC; details: irrespective of PD-L1 status
[22] = system: untreated, non-squamous NSCLC without sensitizing mutations; details: pembrolizumab plus chemotherapy vs. chemotherapy
[23] = system: untreated, PD-L1 ≥50 advanced NSCLC; details: vs. chemotherapy
[24] = system: refractory/relapse primary mediastinal large B-cell lymphoma; details: in vivo
[25] = system: unresectable or metastatic, untreated melanoma; details: for 24-months OS / 24-months PFS: PD-L1 ≥1%; for 1-year OS / PFS (1-year PFS in Table 3): in vivo
[26] = system: unresectable/metastatic urothelial cancer; 2nd line; details: for median OS: vs. chemotherapy
[27] = system: metastatic NSCLC
[28] = system: newly diagnosed stage III/IV ovarian cancer
[29] = system: metastatic NSCLC, 2nd line post platinum-based chemotherapy; details: regardless of PD-L1 expression or histology
[30] = system: triple-negative breast cancer; details: PD-L1 (TPS) ≥1% cut-off
[31] = system: extensive stage SCLC, 1st line setting; details: atezolizumab added to carboplatin and etoposide, vs. placebo
[32] = system: untreated unresectable/metastatic melanoma; details: combination vs. ipilimumab alone
[33] = system: unresectable, previously treated, late-stage melanoma; details: 3 mg/kg every 3 weeks, alone or with gp100
[34] = system: lymph-node positive or metastatic melanoma after complete resection; details: adjuvant
[35] = system: non-small cell lung cancer (NSCLC); details: progressed after platinum-doublet chemotherapy
[36] = system: persistent/recurrent cervical cancer; details: in vivo
[37] = system: MSI-H/dMMR tumors; details: in vivo
[38] = system: persistent/recurrent cervical cancer; details: in vivo; remark: listed apart in the source
[39] = system: metastatic melanoma; details: previously untreated, wild-type BRAF (CheckMate-067 and CheckMate-069)
[40] = system: small-cell lung cancer (SCLC)
[41] = system: advanced metastatic non-small cell lung cancer (NSCLC); details: one patient, EGFR exon 19 deletion; ongoing greater than 1 year
[42] = system: relapsed/refractory metastatic squamous cell cancer of head and neck; details: second-line
[43] = system: metastatic melanoma progressed after anti-CTLA-4 therapy; details: in vivo

Avelumab: PD-L1 blocking antibody
ORR ([1]; PD-L1+): 55.2% | median PFS ([1]; PD-L1+): 13.8 months | median PFS ([1]; overall population): median PFS: 13.8 | CR, patients ([2]; in vivo): 8/88 | ORR, responders/patients ([2]; in vivo): 28/88 | ORR ([2]; regardless of PD-L1): ORR: 31.8% | 24-month OS [3]: OS: 20.1% | CR [3]: 4.1% | ORR [3]: ORR: 16.5%; CR: | PR [3]: 12.4% | median DoR [3]: Median DoR: 20.5 months | median OS [3]: Median OS: 7.0 months | median PFS [3]: Median PFS: 1.6 months | PFS HR vs. chemotherapy alone ([4]; avelumab in combination with chemotherapy): 1.14 | median PFS ([4]; avelumab only group): 16.8 months | median PFS ([4]; combination with chemotherapy): 18.1 months | PFS HR vs. chemotherapy alone ([4]; single agent avelumab maintenance): 1.43

bevacizumab: VEGF inhibitor
patients developing Grade 3/4 product related adverse events [5]: over 65% | survival ([6]; BRCA-m and HRD pattern disease): 62.6 months | survival ([6]; patients with HRP tumors): 43.4 months

Dostarlimab-gxly: anti-PD-1 checkpoint inhibitor
median PFS [7]: Median PFS: 30.3 months

Cemiplimab
ORR [8]: ORR: 16.4% vs. 6.3% | median OS [8]: Median OS: 12.0 months | median PFS: HR [8]: 0.75, p < 0.001 | ORR ([9]; Phase 1 expansion cohorts): 50% | response rates ([9]; Phase 2 metastatic-disease cohort): 47

CO[C@H]1C[C@@H]2CC[C@@H](C)[C@@](O)(O2)C(=O)C(=O)N2CCCC[C@H]2C(=O)O[C@H]([C@H](C)C[C@@H]2CC[C@@H](OCCO)[C@H](OC)C2)CC(=O)[C@H](C)/C=C(\C)[C@@H](O)[C@@H](OC)C(=O)[C@H](C)C[C@H](C)/C=C/C=C/C=C/1C [everolimus]
OS [10]: 19.6 months

NC(=O)c1cccc2cn(-c3ccc([C@@H]4CCCNC4)cc3)nc12 [niraparib]
OS HR ([11]; HRP): 0.93 | OS HR ([11]; overall): 1.01

Durvalumab: PD-L1 blocking antibody
ORR ([12]; PD-L1 negative): 0% (PD-L1 negative) | ORR ([12]; PD-L1 negative, listed as durvalumab): none | ORR ([12]; PD-L1 positive): patients), 46.4% | ORR ([12]; PD-L1 positive, listed as durvalumab): 46.4% | ORR ([12]; all patients): ORR: 31% (all | ORR ([12]; all patients, listed as durvalumab): 31%

CNCc1ccc(-c2[nH]c3cc(F)cc4c3c2CCNC4=O)cc1 [rucaparib]
PFS ([13]; BRCA-wt/LOH low patients): 12.1 months | PFS ([13]; in vivo): 20.2 months

Pembrolizumab: fully humanized IgG4 antibody targeting PD-1
ORR across tumor types [14]: 34% | complete response, patients [14]: 10% | OS [15]: 12.3 months | median DOR [16]: 18 vs. 10.4 months | median PFS [16]: Median PFS: 10.4 months | ORR, responders/patients ([17]; 90 patients with advanced endometrial cancer): 43/90 | ORR, responders/patients ([17]; 98 patients with advanced cervical cancer): 12/98 | ORR ([17]; MSI-H or dMMR solid tumors): studies: ORRs ~40% | ORR ([17]; MSI-H or dMMR solid tumors, listed as pembrolizumab): ~40% | ORR ([17]; TMB-H patients (Keynote-158)): 29% | ORR ([17]; TMB-low patients (Keynote-158)): 6% | ORR [18]: ORR: 38% | ORR ([18]; listed as pembrolizumab): 38% | OS [19]: 10.4 months | complete response [20]: 22% | median duration of response [20]: 11 months | response rate [20]: 69% | response rate, PFS and OS vs. chemotherapy (in words) [21]: consistent response rate, PFS and OS advantage | PFS HR [22]: (HR: 0.53; p = 0.0049) | median PFS [22]: Median PFS: 19.0 months | median PFS ([22]; listed as pembrolizumab): 19 months | 6-months OS [23]: 80.2% vs. 72.4%; | ORR [23]: ORR: 44.8% vs. 27.8% | median PFS [23]: Median PFS: 10.3 months | 6-months OS ([23]; listed as pembrolizumab): 80.2% | ORR ([23]; listed as pembrolizumab): 44.8% | median PFS ([23]; listed as pembrolizumab): 10.3 months | complete response rate [24]: 13% | response rate [24]: 45% | 24-months OS [25]: 58% | 24-months PFS [25]: 33% | OS benefit compared to chemotherapy ([26]; in vivo): 3 months | median OS [26]: Median OS: 10.3 months | median OS ([26]; listed as pembrolizumab): 10.3 months | responding tumors ([27]; PD-L1 negative tumors): 15% | response rate ([27]; PD-L1 positivity): 45%

Atezolizumab: PD-L1 blocking antibody
PFS HR vs. placebo arm ([28]; HRP subgroup): 0.82 | PFS ([28]; PD-L1+ patients): 20.8 months | PFS HR vs. placebo arm ([28]; PD-L1+ patients): 0.80 | median PFS ([28]; atezolizumab with carboplatin plus paclitaxel and bevacizumab): 19.5 months | PFS HR vs. placebo arm ([28]; with carboplatin plus paclitaxel and bevacizumab): 0.92 | OS (in words) [29]: OS benefit | OS (in words) [30]: OS benefit | median OS [31]: Median OS: 12.3 months | median PFS [31]: Median PFS: 5.2 months | median OS ([31]; listed as atezolizumab): 12.3 months | median PFS ([31]; listed as atezolizumab): 5.2 months

CC(=O)O[C@@]12CO[C@@H]1C[C@H](O)[C@@]1(C)C(=O)[C@H](O)C3=C(C)[C@@H](OC(=O)[C@H](O)[C@@H](NC(=O)OC(C)(C)C)c4ccccc4)C[C@@](O)([C@@H](OC(=O)c4ccccc4)[C@H]21)C3(C)C [docetaxel]
OS [19]: 8.5 months

ipilimumab: FDA approved CTLA-4 inhibitor
median PFS [32]: 4.4 months | OS vs. gp100 alone (in words) [33]: OS advantage | 12-month RFS [34]: 60.8% | 24-months OS [25]: 45% | 24-months PFS [25]: 13% | 1-year OS [25]: 58.2% | PFS (1-year PFS in Table 3) [25]: 26.5% | 1-year OS ([25]; listed as Ipilimumab): (vs. 58.2%; | PFS (1-year PFS in Table 3) ([25]; listed as Ipilimumab): 26.5%; p < 0.001);

Nivolumab: fully humanized IgG4 antibody targeting PD-1
ORR [35]: 19-20% | median OS [35]: 9.2-12.2 months | median PFS [35]: 2.3-3.5 months | ORR [36]: ORR: 26.3% | median OS [36]: Median OS: 21.9 months | OS [10]: 25.0 months | ORR [37]: 31% | 12-month RFS [34]: 70.5% | 6-months OS [38]: 6-months OS: 78% | 6-months PFS [38]: 6-months PFS: 16%; | median duration of SD [38]: SD: 5.7 months | response rate [39]: 40% | 24-months OS rate ([40]; in vivo): 17.9% | median OS ([40]; in vivo): 4.7 months | response rate ([40]; progressed on platinum and at least one other line): 11.6% | response (in words) [41]: durable partial response | OS [42]: 7.5 months | response rate [43]: 32%
